Results taken from paper PMC11354909, “Preclinical Evaluation of Soluble Epoxide Hydrolase Inhibitor AMHDU against Neuropathic Pain” (International Journal of Molecular Sciences, 2024).
“And” between values parts separate entries of the source, which are not always exact repeats. Equal entries are not always repeated. “Also recorded” adds a separate entry of the source. Where two headings read alike, the source gives them in different places.

Tests used:
rat paw edema model = experiment: Freund's adjuvant rat paw edema model (anti-inflammatory activity); format: in vivo; conditions: for effect on paw edema (reduction of exudative reaction): day 4
[1] = tested on: pain threshold of inflamed paw, adjuvant inflammation; experiment: Randall–Selitto test in adjuvant inflammation (analgesic activity); format: in vivo, rat
[2] = tested on: STZ-rat neuropathic pain model; experiment: Tactile allodynia (von Frey) in streptozotocin diabetic polyneuropathy; format: in vivo
Experimental: To evaluate the effect of the compound on the development of neuropathic pain, tactile hyperalgesia was evaluated in diabetic polyneuropathy in rats with 2-week streptozotocin-induced diabetes (35 mg/kg intraperitoneally). Only animals with developed allodynia and hyperalgesia were taken into the experiment, with 50% pain response indices not exceeding 6 g. Groups were formed randomly (n = 6). Tactile allodynia in rats was assessed by registering the pressure at which the animals jerked the right hind paw, avoiding exposure to stimuli of increasing degree. VonFrey hairs, which are 20 monofilaments of nylon filaments of different diameters attached to plastic handles, were applied to the right hind paw in turn from below through the mesh. The comparison drug gabapentin as well as the test compound AMHDU dissolved in 10% DMSO was administered intraperitoneally in 10 mg/kg dose 60 min. before the experiment. An equivalent volume of solvent was administered to control animals. The experiment was started with a monofilament labeled 4.31. If there was no response after 5 incidents of touching, the monofilament was successively changed to the next monofilament with higher strength. […] The 50% threshold of paw retraction during successive increases and decreases in stimulus strength was determined using the UP-AND-DOWN method.

[3] = Pharmacokinetic study, intraperitoneal injection; format: in vivo, male Swiss–Webster mice
Experimental: Animal experiments were approved by the Animal Use and Care Committee of University of California, Davis. Compounds were formulated in 5% EtOH, 95% PEG400 at a concentration of 0.25 mg/mL. […] […] For compound detection in plasma, 10 µL whole blood was sampled by tail nick and transferred immediately to 50 µL water containing 0.1% EDTA. Samples were extracted as previously described and stored at −20 °C until analysis. Samples were analysed by LC-MS/MS on an Agilent SL 1200 series LC system (Agilent, Palo Alto, CA, USA) connected to a 4000 Qtrap mass spectrometer (Applied Biosystems Instrument Corporation, Foster City, CA, USA) with Turbo V ion source. Liquid chromatography was performed on a Kinetex R© C18 column (100 × 2.1 mm, 1.7 μm). The mass spectrometer was operated in positive modes with primary MRM scan of 499.377/143.153 and secondary scans of 499.377/149.190 and 499.377/166.204. Peaks were integrated using Analyst software v 1.6.3 (Ab Sciex, Washington, DC, USA) and quantified against a standard curve as previously described.

[4] = Acute oral toxicity (OECD test No. 423); conditions: for Adrenal glands mass ratio to whole body weight / Brain mass ratio to whole body weight / Heart mass ratio to whole body weight / Kidneys mass ratio to whole body weight / Liver mass ratio to whole body weight / Lungs mass ratio to whole body weight / Ovaries mass ratio to whole body weight / Spleen mass ratio to whole body weight / Thymus mass ratio to whole body weight: 2 weeks after single intragastric dose, m ± SD
Experimental: The acute toxicity of the substance by intragastric administration to female outbred rats was studied; the toxicity class, tolerated, toxic, lethal doses and character of toxic effect were determined according to the OECD test No. 423.
Experiments were performed on sexually mature laboratory white mongrel female rats, divided into experimental and control groups. Experimental animals were administered the AMHDU substance diluted in 50% dimethyl sulfoxide solution in the recommended GOST 32644-2014 initial dose of 300 mg/kg (n = 6), as well as the maximum dose of 2000 mg/kg (n = 3) in the maximum allowable volume of 20 mL/kg once intra-gastrically. Control animals (n = 6) were injected with dimethyl sulfoxide diluted 1:1 with purified water at volumes identical to those of the experimental animals. The animals were monitored for 2 weeks, continuously for the first 4 h after injection. Routine necropsy of all surviving animals was performed on day 15.

[5] = target: soluble epoxide hydrolase (sEH); parameters: method as in PMID 24685540; conditions: slow tight binding sEH inhibitor; cited from earlier work
[6] = individual animals No. 1-4, i.p., table dose 1 mg/kg, 1 mg/kg

In the case of C[C@@H]1C[C@H]2[C@@H]3CCC4=CC(=O)C=C[C@]4(C)[C@@]3(F)[C@@H](O)C[C@]2(C)[C@@]1(O)C(=O)CO [dexamethasone, reference compound], the “effect on paw edema (reduction of exudative reaction)” value (rat paw edema model; dexamethasone 5 mg/kg i.p. 2 times a day for 4 days) is reported as 65%.
With O=C(NCCCCCCNC(=O)NCC12CC3CC(CC(C3)C1)C2)NCC12CC3CC(CC(C3)C1)C2 [AMHDU, 1,1′-(hexane-1,6-diyl)bis(3-((adamantan-1-yl)methyl)urea)] the “effect on the volume of the affected limb (paw edema)” value (rat paw edema model; 5 mg/kg i.p. 2 times a day for 4 days, day 4 after adjuvant) was “no significant effect”, the “reduction of the primary exudative reaction (paw edema)” value (rat paw edema model; 30 mg/kg i.p. 2 times a day for 4 days, day 4 after adjuvant) was “no statistically significant reduction” and the “anti-inflammatory effect (overall conclusion)” value (rat paw edema model; 5 and 30 mg/kg i.p.) was “lacks anti-inflammatory activity; also recorded: negligible anti-inflammatory effect”. The “effect on pain threshold” value ([1]; 5 mg/kg i.p. 2 times a day for 4 days) was “no significant suppression of the pain threshold”, the “increase of paw-pulling threshold” value ([1]; 30 mg/kg i.p. 2 times a day for 4 days) was 38% and the “analgesic activity compared with reference drugs” value ([1]; AMHDU 30 mg/kg i.p. vs celecoxib 10 mg/kg, dexamethasone 5 mg/kg) was “superior to both dexamethasone and celecoxib”. The “analgesic activity compared with gabapentin” value ([2]; 10 mg/kg i.p. both drugs) was “comparable to standard of care gabapentin”, the “pain threshold relative to the control group” value ([2]; 10 mg/kg i.p., 60 min before the experiment) was 1.5 times and the “compound left in the bloodstream” value ([3]; 4 h after injection, i.p. 1.25 mg/kg) was “none is left in the bloodstream”. For the same compound, the AUC ([3]; Swiss-Webster, mouse, whole blood, ip, i.p. 1.25 mg/kg, male mice) was 26 ng·h/mL, the half-life ([3]; Swiss-Webster, mouse, whole blood, ip, i.p. 1.25 mg/kg, male mice, read-out: half-life (Thalf)) was ~0.167 h and the AUClast [3, 6] was 24 ng·h/mL and 35 ng·h/mL and 31 ng·h/mL and 16 ng·h/mL. The Cmax [3, 6] was 24.32 ng/mL and 53.00 ng/mL and 31.93 ng/mL and 30.86 ng/mL, the MRT [3, 6] was 1.51 h and 1.04 h and 1.08 h and 0.55 h and the Thalf [3, 6] was 0.18 h and 0.16 h and 0.13 h and 0.15 h. The Tmax [3, 6] was 2.0 h and 0.5 h, the Thalf ([3]; m ± SE of 4 mice, i.p.) was 0.16 ± 0.02 h and the AUC(0-t) ([3]; male, Swiss-Webster, mouse, whole blood, ip, 1.25 mg/kg, m ± SE of 4 mice) was 26.4 ± 8.6 ng·h/mL. For the same compound, the Cmax ([3]; male, Swiss-Webster, mouse, whole blood, ip, 1.25 mg/kg, m ± SE of 4 mice, i.p., read-out: Cmax) was 35 ± 12.4 ng/mL, the MRT ([3]; male, Swiss-Webster, mouse, whole blood, ip, 1.25 mg/kg, m ± SE of 4 mice, i.p., read-out: MRT) was ~1 h and the Tmax ([3]; male, Swiss-Webster, mouse, whole blood, ip, 1.25 mg/kg, mean of 4 mice, i.p., read-out: Tmax) was 1 h. For the same compound, the “Adrenal glands mass ratio, change compared to control group” value ([4]; 300 mg/kg, 2 weeks) was “–8.5%”, the “Brain mass ratio, change compared to control group” value ([4]; 300 mg/kg, 2 weeks) was “–0.1%” and the “Heart mass ratio, change compared to control group” value ([4]; 300 mg/kg, 2 weeks) was “–6.4%”. For the same compound, the “Kidneys mass ratio, change compared to control group” value ([4]; 300 mg/kg, 2 weeks) was “–3.1%”, the “Liver mass ratio, change compared to control group” value ([4]; 300 mg/kg, 2 weeks) was 2.1% and the “Lungs mass ratio, change compared to control group” value ([4]; 300 mg/kg, 2 weeks) was “–3.5%”. The “Ovaries mass ratio, change compared to control group” value ([4]; 300 mg/kg, 2 weeks) was “–1.0%”, the “Spleen mass ratio, change compared to control group” value ([4]; 300 mg/kg, 2 weeks) was 0.5% and the “Thymus mass ratio, change compared to control group” value ([4]; 300 mg/kg, 2 weeks) was “–4.1%”. The “Adrenal glands mass ratio to whole body weight” value ([4]; 300 mg/kg) was 0.04 ± 0.004%, the “Brain mass ratio to whole body weight” value ([4]; 300 mg/kg) was 0.72 ± 0.02% and the “Heart mass ratio to whole body weight” value ([4]; 300 mg/kg) was 0.33 ± 0.01%. For the same compound, the “Kidneys mass ratio to whole body weight” value ([4]; 300 mg/kg) was 0.62 ± 0.02%, the “Liver mass ratio to whole body weight” value ([4]; 300 mg/kg) was 3.03 ± 0.12% and the “Lungs mass ratio to whole body weight” value ([4]; 300 mg/kg) was 0.60 ± 0.04%. For the same compound, the “Ovaries mass ratio to whole body weight” value ([4]; 300 mg/kg) was 0.05 ± 0.003%, the “Spleen mass ratio to whole body weight” value ([4]; 300 mg/kg) was 0.48 ± 0.01% and the “Thymus mass ratio to whole body weight” value ([4]; 300 mg/kg) was 0.17 ± 0.03%. The “Adrenal glands mass ratio, change compared to control group” value ([4]; 2000 mg/kg, 2 weeks) was “–14.4%”, the “Brain mass ratio, change compared to control group” value ([4]; 2000 mg/kg, 2 weeks) was “–0.3%” and the “Heart mass ratio, change compared to control group” value ([4]; 2000 mg/kg, 2 weeks) was “–10.4%”. The “Kidneys mass ratio, change compared to control group” value ([4]; 2000 mg/kg, 2 weeks) was 0.4%, the “Liver mass ratio, change compared to control group” value ([4]; 2000 mg/kg, 2 weeks) was “–6.4%” and the “Lungs mass ratio, change compared to control group” value ([4]; 2000 mg/kg, 2 weeks) was “–10.7%”. The “Ovaries mass ratio, change compared to control group” value ([4]; 2000 mg/kg, 2 weeks) was 18.3%, the “Spleen mass ratio, change compared to control group” value ([4]; 2000 mg/kg, 2 weeks) was “–9.9%” and the “Thymus mass ratio, change compared to control group” value ([4]; 2000 mg/kg, 2 weeks) was “–11.0%”. The “Adrenal glands mass ratio to whole body weight” value ([4]; 2000 mg/kg) was 0.03 ± 0.003%, the “Brain mass ratio to whole body weight” value ([4]; 2000 mg/kg) was 0.72 ± 0.02% and the “Heart mass ratio to whole body weight” value ([4]; 2000 mg/kg) was 0.32 ± 0.01%. The “Kidneys mass ratio to whole body weight” value ([4]; 2000 mg/kg) was 0.64 ± 0.03%, the “Liver mass ratio to whole body weight” value ([4]; 2000 mg/kg) was 2.77 ± 0.41% and the “Lungs mass ratio to whole body weight” value ([4]; 2000 mg/kg) was 0.56 ± 0.03%. The “Ovaries mass ratio to whole body weight” value ([4]; 2000 mg/kg) was 0.06 ± 0.01%, the “Spleen mass ratio to whole body weight” value ([4]; 2000 mg/kg) was 0.43 ± 0.02% and the “Thymus mass ratio to whole body weight” value ([4]; 2000 mg/kg) was 0.16 ± 0.01%. For the same compound, the “necropsy: architectonics of internal organs location” value ([4]; day 15 after intragastric 300 and 2000 mg/kg) was “no pathological changes”, the “toxicity class according to the GHS classification” value ([4]; female, outbred white mongrel, rat, in vivo, 2 weeks) was “class 5” and the LD50 at 2 weeks ([4]; female, outbred white mongrel, rat, in vivo, po, LD50 (acute oral toxicity), intragastric, female rats) was > 2000 mg/kg. The “LD50 (acute oral toxicity)” value ([4]; intragastric, female rats) was 2000 to 5000 mg/kg, the “death in early and distant periods of observation” value ([4]; single intragastric limit dose 2000 mg/kg, 2 weeks observation) was “does not contribute to death” and the IC50 [5] was 0.5 nM. For the same compound, the Ki [5] was 3.1 nM.
In the case of Cc1ccc(-c2cc(C(F)(F)F)nn2-c2ccc(S(N)(=O)=O)cc2)cc1 [celecoxib, reference compound], the “effect on paw edema (reduction of exudative reaction)” value (rat paw edema model; celecoxib 10 mg/kg i.p. 2 times a day for 4 days) is reported as 51%.
